The subject of assay [1] is DRG neuron Na+ channels. The experiment in a line: Whole-cell voltage clamp recording of sodium channel currents in dorsal root ganglion neurons. The assay is classed as cell-based, mouse. The note with it: for IC50: isolated mouse DRG neurons, whole-cell patch clamp, held at -70 mV, read-out: IC50, inhibition of DRG neuron Na+ channels. The procedure:
Dorsal root ganglion (DRG) neurons (T1–T10) from adult male C57B6 mice (aged 6–8 weeks) were isolated as per Malin et al. Briefly, ganglia were dissected under stereo microscope and washed in Ca^2+/Mg^2+-free Hank's Buffered Salt Solution (HBSS). DRGs were digested enzymatically, first with papain and then collagenase II and dispase II, each for 10 min at 37°C. Digested DRGs were then triturated in culture media (F-12 supplemented with 10% FBS and 5 mg/ml penicillin/streptomycin) by a fire-polished Pasteur pipette until solution becomes cloudy. Isolated DRG neurons were plated on poly-ornithine coated glass cover slips and maintained in a 37°C, 5% CO2 incubator. Individual DRG neurons were recorded after overnight culture.
Plated coverslips were centered in a perfusion chamber filled with extracellular solution (ECS) containing (in mM): 140 NaCl, 5 KCl, 2 CaCl2, 1 MgCl2, 10 glucose, 10 HEPES, pH 7.4. Cocaine and CM were dissolved in ECS and delivered via a pressure-driven perfusion system (SmartSquirt 8, AutoMate Scientific) with the tip positioned so the DRG neuron being recorded was fully within the direct stream of perfusate. Recording pipettes were pulled from micropipette glass (World Precision Instruments, Sarasota FL) to 2–4 MΩ when filled with an intracellular solution containing (in mM): 140 […], 1 CaCl2, 2 MgCl2, 11 EGTA, 10 HEPES, 2 Mg2ATP, pH 7.2). Whole-cell recordings were made using an EPC10 amplifier and the PatchMaster 2.2.0 software (both from HEKA Electronik, Germany). As soon as the whole-cell configuration was established, fast and slow capacitances were cancelled and the holding potential (Vh) was set to -70 mV. A step protocol ([…] from −70 mV to 10 mV with 5 mV increment for each step) was applied to determine the testing voltage (Vt) that generated the maximal inward current in the following experiment. […] Only one cell per cover slip was recorded to avoid possible drug contamination of other cells. […]
A range of drug concentrations, starting from low to high, were tested for each DRG neuron. The sodium channel currents were recorded 30 s before the drug application, during the 30 s drug application, and 30–60 s after drug washout by perfusion with ECS. For each set of tests, current amplitude was measured by subtracting the baseline value from the peak current. […] The currents measured after the drug washout were used to confirm the complete recovery before testing the next drug concentration.
The IC50 values were determined by nonlinear regression analyses of experimental data using GraphPad Prism 3.0 (San Diego, CA). IC50 values presented are averages ± standard error of means (SEM) calculated from 3 independent uptake experiments or recordings of 4 different DRG neurons. […]
(In general: The patch-clamp technique gives a direct electrical read-out from membranes.)

Assay [2] deals with mouse DAT (Mus musculus, UniProt Q61327). The experiment in a line: Dopamine uptake into HeLa cells transiently transfected with mDAT. The assay is classed as cell-based.
Chain of mouse DAT (Q61327 whole entry): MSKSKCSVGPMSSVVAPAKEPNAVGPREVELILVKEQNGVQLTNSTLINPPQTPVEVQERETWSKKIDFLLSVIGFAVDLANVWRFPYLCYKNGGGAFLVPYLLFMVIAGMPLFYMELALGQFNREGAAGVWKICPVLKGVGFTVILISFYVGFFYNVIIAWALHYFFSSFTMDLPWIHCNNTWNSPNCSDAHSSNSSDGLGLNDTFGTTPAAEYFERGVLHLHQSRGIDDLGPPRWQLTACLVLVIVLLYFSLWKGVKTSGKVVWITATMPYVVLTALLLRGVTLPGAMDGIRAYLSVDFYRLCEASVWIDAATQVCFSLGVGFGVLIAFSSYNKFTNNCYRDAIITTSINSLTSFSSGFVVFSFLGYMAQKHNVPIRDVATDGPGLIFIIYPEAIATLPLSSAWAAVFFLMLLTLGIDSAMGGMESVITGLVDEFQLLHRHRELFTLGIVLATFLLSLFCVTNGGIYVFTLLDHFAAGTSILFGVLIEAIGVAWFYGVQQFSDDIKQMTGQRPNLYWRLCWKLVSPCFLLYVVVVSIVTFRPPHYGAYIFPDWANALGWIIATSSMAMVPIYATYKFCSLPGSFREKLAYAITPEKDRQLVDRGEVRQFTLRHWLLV
Assay [3] deals with T1, dopamine uptake by striatal synaptosomes (Mus musculus, UniProt Q61327).
T1 construct: C57B6 mice (aged 6–8 weeks) were decapitated and striatum were dissected from both sides of the brain; from tissue; host or cells: striatal synaptosomes of C57B6 mice
T1 sequence (Q61327 whole entry): as above
The experiment in a line: Dopamine reuptake into striatal synaptosomes. The assay is classed as biochemical. As for the experimental part:
All animal work was conducted in adherence to OSU IACUC approved protocols and guidelines for animal welfare. C57B6 mice (aged 6–8 weeks) were decapitated and striatum were dissected from both sides of the brain and stored on ice. The tissues were placed in ice-cold Krebs'-Ringer's solution buffer (KRB) (in mM: 125 NaCl, 1.2 KCl, 1.2 MgSO4, 1.2 CaCl2, 22 NaHCO3, 1 NaH2PO4, and 10 glucose, adjusted to pH 7.4) with an additional 0.32 M sucrose. Tissue samples were homogenized by using a glass homogenizing tube and with a Teflon-coated pestle. The samples were centrifuged for 10 min at 1,000xg. Supernatant was collected and the debris pellet was discarded. Supernatant was centrifuged for 15 min at 16,000x g. […] Amounts of [^3H]-labeled dopamine accumulated were quantitated by liquid-scintillation counting. All experiments were performed in triplicates. Synaptosomes with the highest dose of inhibitor were used as background controls and radioactivity associated with these wells were subtracted from the total scintillation counts of all wells.
The IC50 values were determined by nonlinear regression analyses of experimental data using GraphPad Prism 3.0 (San Diego, CA). IC50 values presented are averages ± standard error of means (SEM) calculated from 3 independent uptake experiments or recordings of 4 different DRG neurons. Statistical analyses for the difference between the IC50 values of the two drugs were performed by Student's paired t-test using SPSS 17.0 (Chicago, IL).

Assay [4] concerns the target mouse NET (Mus musculus, UniProt O55192). The experiment in a line: Norepinephrine uptake into HeLa cells transiently transfected with mNET. The assay is classed as cell-based.
The target of assay [5] is mouse SERT (Mus musculus, UniProt Q60857). The experiment in a line: Serotonin uptake into HeLa cells transiently transfected with mSERT. Type of assay: cell-based.
Chain of mouse SERT (Q60857 whole entry): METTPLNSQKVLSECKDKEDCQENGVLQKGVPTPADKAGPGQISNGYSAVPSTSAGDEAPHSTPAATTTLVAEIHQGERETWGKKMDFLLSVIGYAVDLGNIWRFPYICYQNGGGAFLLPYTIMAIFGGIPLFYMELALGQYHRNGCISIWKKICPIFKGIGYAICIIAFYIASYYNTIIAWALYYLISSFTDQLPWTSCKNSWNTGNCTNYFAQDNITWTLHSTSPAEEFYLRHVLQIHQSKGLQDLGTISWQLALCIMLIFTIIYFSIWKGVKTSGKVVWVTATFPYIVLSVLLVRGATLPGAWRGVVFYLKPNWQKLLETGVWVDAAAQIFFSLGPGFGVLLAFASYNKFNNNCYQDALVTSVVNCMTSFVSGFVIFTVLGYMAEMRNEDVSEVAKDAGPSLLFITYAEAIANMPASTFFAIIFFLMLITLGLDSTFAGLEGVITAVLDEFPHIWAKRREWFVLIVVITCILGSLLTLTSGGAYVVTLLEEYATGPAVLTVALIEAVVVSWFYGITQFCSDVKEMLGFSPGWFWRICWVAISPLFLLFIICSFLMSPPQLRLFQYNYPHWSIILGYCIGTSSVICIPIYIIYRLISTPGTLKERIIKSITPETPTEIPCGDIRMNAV
The subject of assay [6] is sodium channels. Set-up: method as in PMID 16406254. The settings on record: cited from earlier work.

“Also recorded” adds a separate entry of the source. Read-outs that look alike come from different tables or passages of the source. Some results are limits rather than exact numbers.

Here are results for two compounds from publication PMC2762027, “Potencies of Cocaine Methiodide on Major Cocaine Targets in Mice” (PLoS ONE, 2009).

Chain of mouse NET (O55192 whole entry): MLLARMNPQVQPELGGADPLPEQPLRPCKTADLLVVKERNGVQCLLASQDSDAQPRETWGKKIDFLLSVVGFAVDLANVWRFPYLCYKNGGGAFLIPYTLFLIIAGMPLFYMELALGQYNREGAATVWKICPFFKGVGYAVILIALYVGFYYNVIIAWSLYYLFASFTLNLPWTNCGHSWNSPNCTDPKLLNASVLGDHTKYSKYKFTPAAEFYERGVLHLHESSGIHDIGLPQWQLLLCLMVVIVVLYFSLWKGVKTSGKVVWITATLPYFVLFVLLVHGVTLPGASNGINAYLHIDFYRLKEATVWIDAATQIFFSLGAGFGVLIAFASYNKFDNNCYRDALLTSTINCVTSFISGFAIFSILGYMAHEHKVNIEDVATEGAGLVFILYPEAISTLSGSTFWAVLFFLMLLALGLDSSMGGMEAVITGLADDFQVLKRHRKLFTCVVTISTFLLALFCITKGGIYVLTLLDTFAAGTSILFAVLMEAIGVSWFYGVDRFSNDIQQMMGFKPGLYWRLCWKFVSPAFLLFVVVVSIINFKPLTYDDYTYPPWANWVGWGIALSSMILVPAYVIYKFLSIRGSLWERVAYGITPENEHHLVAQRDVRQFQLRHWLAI

By IC50 is commonly meant the concentration at which inhibition is half-maximal. `COC(=O)[C@H]1[C@@H](OC(=O)c2ccccc2)C[C@@H]2CC[C@H]1[N+]2(C)C.[I-]` [Cocaine Methiodide, Cocaine methiodide]: the “effect on sodium channel currents (peak inward current) in DRG neurons” value in assay [1] (concentrations up to 3 mM, the highest tested, n = 4 cells, p>0.05, listed as CM) is reported as “very little inhibition; also recorded: no observable effect; also recorded: little observable effect; also recorded: does not inhibit”. Further, the “ratio of IC50 values, cocaine methiodide / cocaine, mDAT” value in assay [2] (transfected HeLa cells) is given as 184 fold. Moreover, the IC50 worked out at 83.2 ± 2.1 µM in assay [2] (transfected HeLa cells, 60 nM [3H] substrate, mean ± SEM, 3 experiments, read-out: IC50, inhibition of dopamine uptake by mDAT); 11.7 ± 5.1 µM in assay [3] (mouse striatum synaptosomes, 60 nM [3H]dopamine, 100 µM desipramine, mean ± SEM, 3 experiments, listed as CM, read-out: IC50, inhibition of dopamine uptake by striatal synaptosomes); 11.5 ± 5.1 µM in assay [3] (mouse striatum synaptosomes, 60 nM [3H]dopamine, 100 µM desipramine, mean ± SEM, 3 experiments, read-out: IC50, inhibition of dopamine uptake by striatal synaptosomes); 20.9 ± 3.1 µM in assay [4] (transfected HeLa cells, 60 nM [3H] substrate, mean ± SEM, 3 experiments, read-out: IC50, inhibition of norepinephrine uptake by mNET); 84.3 ± 4.8 µM in assay [5] (transfected HeLa cells, 60 nM [3H] substrate, mean ± SEM, 3 experiments, read-out: IC50, inhibition of serotonin uptake by mSERT). Moreover, the “ratio of IC50 values, cocaine methiodide / cocaine, striatal synaptosomes” value in assay [3] (dopamine uptake, mouse striatal synaptosomes) is given as 33 fold. For the same compound, the “ratio of IC50 values, cocaine methiodide / cocaine, mNET” value in assay [4] (transfected HeLa cells) was found to be 31 fold. In addition, the “ratio of IC50 values, cocaine methiodide / cocaine, mSERT” value in assay [5] (transfected HeLa cells) is given as 123 fold.

For `COC(=O)[C@H]1[C@@H](OC(=O)c2ccccc2)C[C@@H]2CC[C@H]1N2C` [Cocaine], in assay [1] (cocaine, DRG Na+ channels vs DAT, NET, SERT), the “sodium channel IC50 relative to those for the monoamine transporters” value was “roughly 100 fold”. The IC50 in assay [1] (n = 4 cells, listed as cocaine) came to 85 µM; in assay [1] (n = 4 cells) it was 84.8 ± 5.9 µM; in assay [2], 0.45 ± 0.11 µM; in assay [3], 0.35 ± 0.11 µM; in assay [4] it was 0.67 ± 0.09 µM; in assay [5], 0.68 ± 0.39 µM. Further, the “potency for blocking sodium channels” value in assay [6] is recorded as not below 50 µM.
